Source: publication PMC1976805, “Preclinical pharmacokinetics of benznidazole” (British Journal of Cancer, 1984)
“And” between values parts separate entries of the source, which are not always exact repeats. Identical values can stand only once. Like-named read-outs stand apart in the source and are kept apart here.

Experiments:
[1] = Penetration into mouse liver; format: in vivo; settings: for liver/whole plasma ratio, overall mean / liver concentration / whole plasma concentration / Kp at 0.5 h / Kp at 3 h / Kp at 6 h / Kp: 78 mg kg-1 i.p.; for liver/whole plasma ratio, overall mean / Kp: 0.5-6 h; for Kp at 0.5 h / Kp at 3 h / Kp at 6 h / Kp: mouse, ip; for Kp at 0.5 h / Kp at 3 h / Kp at 6 h: liver / whole plasma, read-out: liver/whole plasma ratio; for Kp: liver, read-out: liver/whole plasma ratio, overall mean
Description: (§1) Br. J. Cancer (1984), 50, 291-303 Preclinical pharmacokinetics of benznidazole P. Workman', R.A.S. White2, M.I. Walton', L.N. Owen2* & P.R. Twentyman' 1MRC Clinical Oncology and Radiotherapeutics Unit, MRC Centre, Hills Road, Cambridge CB2 2QH, and 2Department of Clinical Veterinary Medicine, University of Cambridge, Madingley Road, Cambridge CB3 OES, UK. […] We have investigated the detailed pharmacokinetics of benznidazole in mice, dogs and sheep to provide a data base for the estimation of doses required for chemosensitization in man. Pharmacokinetic behaviour was linear except at high doses in mice. Absorption was fairly rapid and bioavailability was complete following both i.p. administration in mice and oral administration in dogs. Elimination t4 values were longer than for MISO, being 90 min in mice, 4-5 h in sheep and 9-11 h in dogs. At doses giving linear kinetics, peak whole plasma concentrations per administered mgkg-1 were 0.75 jigml-1 for the i.p. route in mice and 1.8jugmlP' for the oral route in dogs. Though between 39 and 59% of plasma benznidazole was bound to protein, tissue penetration was generally good. Tissue/whole plasma ratios ranged from 59-99% for transplantable mouse tumours and from 14-70% for spontaneous dog neoplasms. Nervous tissue penetration was similar to that in tumours: brain/whole plasma ratios averaged between 61 and 76% in mice and 42% in dogs, while peripheral nerve/whole plasma ratios in dogs averaged 74%. Mean liver/whole plasma ratios were 42% and 71% in BALB/c and C3H/He mouse strains respectively. Only -5% of the administered dose was excreted unchanged in the urine, indicating the likelihood of extensive metabolism. […] Enhancement of CCNU response is likely to require circulating benznidazole concentrations of 10-30 pgml-1 and we predict that these will be obtained with oral doses of 6-20 mgkg- 1 in man. […] This enhancement, or chemosensitization, is usually greater than that seen in dose-limiting normal tissues, resulting in an improved therapeutic index. Because of the relatively high doses of MISO usually required for chemosensitization in mice (see above refs), and also because of its neurotoxicity in man (Dische et al., 1977), we have been interested in finding an improved chemosensitizer. […] The lipophilic ana- logue benznidazole (N-benzyl-(2-nitroimidazolyl) acetamide, Ro 07-1051; Radanil; Roche), the structure of which is shown in Figure 1, was selected for detailed study because of its ability to *Present address: Animal Health Trust, Small Animals Centre, Lanwades Park, Kennett, Newmarket, Suffolk CB8 7PN, UK. Correspondence: P. Workman. […] These findings have been confirmed independently by Siemann et al. (1983). Although benznidazole is used quite widely in South America to treat patients with the trypanosomal infection Chagas' disease or with mucotaneous Leishmaniasis (Barclay et al., 1978; Cerisola et al., 1978; Coura et al., 1978; Fava et al., 1978), apart from our preliminary studies (White et al., 1982) the only published data on its pharmaco- kinetics are for human plasma concentrations measured by polarography (Raaflub & Ziegler, 1979; Raaflub, 1980). Here we describe the pharmacokinetics of benznidazole in the mouse, sheep and dog, as determined by high-performance liquid chromatography (HPLC). […] The Macmillan Press Ltd., 1984 292 P. WORKMAN et al. particularly on plasma and tumour concentrations, have been used as a basis for the estimation of the benznidazole doses required in a Phase I trial of benznidazole plus CCNU, at present ongoing in our Unit. Materials and methods Animals and tumours Adult inbred male BALB/c mice were obtained from OLAC (Southern) Ltd. (Bicester, UK) and adult inbred C3H/He mice of both sexes from OLAC and our own breeding colony. Mice were housed in plastic cages on sawdust bedding made from soft white woods, and allowed laboratory chow and water ad lib. They were used at 20-35 g body wt.

[2] = tested on: KHT tumour; settings: mice, cited from earlier work
[3] = Maximum tolerated dose in mice; settings: male, mouse, in vivo, ip; BALB/c mice, i.p., highest dose used; read-out: maximum tolerated dose (about)
Description: Br. J. Cancer (1984), 50, 291-303 Preclinical pharmacokinetics of benznidazole P. Workman', R.A.S. White2, M.I. Walton', L.N. Owen2* & P.R. Twentyman' 1MRC Clinical Oncology and Radiotherapeutics Unit, MRC Centre, Hills Road, Cambridge CB2 2QH, and 2Department of Clinical Veterinary Medicine, University of Cambridge, Madingley Road, Cambridge CB3 OES, UK. […] We have investigated the detailed pharmacokinetics of benznidazole in mice, dogs and sheep to provide a data base for the estimation of doses required for chemosensitization in man. Pharmacokinetic behaviour was linear except at high doses in mice. Absorption was fairly rapid and bioavailability was complete following both i.p. administration in mice and oral administration in dogs. […] Although benznidazole is used quite widely in South America to treat patients with the trypanosomal infection Chagas' disease or with mucotaneous Leishmaniasis (Barclay et al., 1978; Cerisola et al., 1978; Coura et al., 1978; Fava et al., 1978), apart from our preliminary studies (White et al., 1982) the only published data on its pharmaco- kinetics are for human plasma concentrations measured by polarography (Raaflub & Ziegler, 1979; Raaflub, 1980). Here we describe the pharmacokinetics of benznidazole in the mouse, sheep and dog, as determined by high-performance liquid chromatography (HPLC). […]

[4] = parameters: method as in earlier work; settings: patients, 5 mg kg-1 day-1 for 30 days, side effects incl. peripheral neuropathy observed in these studies, ref Barclay et al., 1978, Cerisola et al., Coura et al., Fava et al.; cited from earlier work
[5] = Penetration into EMT6 and KHT mouse tumours; format: in vivo; settings: for steady-state concentration in tumour: multiple dose schedule
Description: as §1

[6] = benznidazole 78 mg kg-1 i.p., ref Twentyman & Workman, 1983, Siemann et al.
[7] = EMT6 flank tumour, BALB/c, 45 min after 650 mg kg-1 i.p.

## O=C(Cn1ccnc1[N+](=O)[O-])NCc1ccccc1 [benznidazole, N-benzyl-(2-nitroimidazolyl) acetamide]
[1]; BALB/c
  liver/whole plasma ratio, overall mean: 41.7%
[1]; BALB/c, 0.5 h
  liver concentration: 20.8 µg/g
  whole plasma concentration: 45.3 µg/mL
[1]; BALB/c, 3.0 h
  liver concentration: 10.3 µg/g
  whole plasma concentration: 29.8 µg/mL
[1]; BALB/c, 6.0 h
  liver concentration: 8.2 µg/g
  whole plasma concentration: 12.2 µg/mL
[1]; C3H/He, n=29
  liver/whole plasma ratio, overall mean: 70.6% and 71 + 8%
[1]; C3H/He, 0.5 h
  liver concentration: 25.2 µg/g
  whole plasma concentration: 33.9 µg/mL
[1]; C3H/He, 3.0 h
  liver concentration: 17.3 µg/g
  whole plasma concentration: 34.1 µg/mL
[1]; C3H/He, 6.0 h
  liver concentration: 17.8 µg/g
  whole plasma concentration: 21.1 µg/mL
[1]; both sexes, C3H/He, 78 mg kg-1, C3H/He, 0.5 h
  Kp at 0.5 h: 0.758
[1]; both sexes, C3H/He, 78 mg kg-1, C3H/He, 3.0 h
  Kp at 3 h: 0.533
[1]; both sexes, C3H/He, 78 mg kg-1, C3H/He, 6.0 h
  Kp at 6 h: 0.843
[1]; both sexes, C3H/He, 78 mg kg-1, C3H/He, n=29
  Kp: 0.71
[1]; male, BALB/c, 78 mg kg-1, BALB/c, 0.5 h
  Kp at 0.5 h: 0.466
[1]; male, BALB/c, 78 mg kg-1, BALB/c, 3.0 h
  Kp at 3 h: 0.348
[1]; male, BALB/c, 78 mg kg-1, BALB/c, 6.0 h
  Kp at 6 h: 0.439
[1]; male, BALB/c, 78 mg kg-1, BALB/c
  Kp: 0.42
[1]; mice, 13 mg kg-1 i.p.
  peak liver concentration that would be produced: ~7 µg/g
[1]; mice, discussion summary
  liver concentration: 21 µg/g
[2]; [6]
  enhancement factor of CCNU response in normal tissues: 1.2-1.4
  enhancement factor of tumour response to CCNU: 1.5-2
[2]; ref Workman & Twentyman, 1982
  i.p. dose giving clear enhancement of KHT tumour response to CCNU (at least as low as): ≤ 13 mg/kg
[3]
  MTD: ~832 mg/kg
[4]
  tolerability: well tolerated
[5]; [7]
  concentration in tumour homogenate (Figure 2 chromatogram): 13500 ng/mL
  tumour concentration (Figure 2 chromatogram): 54 µg/g
[5]; EMT6 flank, experiment b, 650 mg kg-1 i.p., 45 min
  tumour/whole plasma ratio (s.e., n=5): 58+8%
[5]; EMT6 flank, experiment b, 650 mg kg-1 i.p., 75 min
  tumour/whole plasma ratio (s.e., n=5): 70 + 5%
[5]; EMT6 flank, experiment b, 650 mg kg-1 i.p., 105 min
  tumour/whole plasma ratio (s.e., n=5): 97 + 4%
[5]; EMT6 flank, experiment b, 650 mg kg-1 i.p., 135 min
  tumour/whole plasma ratio (s.e., n=5): 88 + 9%
[5]; EMT6 i.d. flank, BALB/c, Exp 2 (b): 650 mg kg-1 i.p., 45-135 min, n=20
  tumour/whole plasma ratio (% ± s.e.): 79 + 5%
[5]; EMT6 i.d. flank, first experiment, 650 mg kg-1 i.p. in arachis oil
  peak tumour level (s.e., n=4): 55+11 µg g-1
[5]; EMT6 i.m. leg, BALB/c, Exp 1 (c): 650 mg kg-1 i.p., 45-135 min, n=20
  tumour/whole plasma ratio (% ± s.e.): 75 + 5%
[5]; EMT6 i.m. leg, BALB/c, Exp 2 (d): 650 mg kg-1 i.p., 45-135 min, n=20
  tumour/whole plasma ratio (% ± s.e.): 74+6%
[5]; EMT6 i.m. leg, first experiment, 650 mg kg-1 i.p.
  peak tumour level (s.e., n=5): 130+7 µg g-1
[5]; EMT6 i.m. leg, second experiment, 650 mg kg-1 i.p.
  peak tumour level (s.e., n=5): 84+14 µg g-1
[5]; KHT i.m. leg, C3H/He, Exp 1 (e): 60 mg kg-1 i.p. priming + 15 hourly doses of 15 mg kg-1, 1-16 h, n=25
  tumour/whole plasma ratio (% ± s.e.): 99+3%
[5]; KHT i.m. leg, C3H/He, Exp 2 (f): dosing as e omitting the dose at 1 h, 2-16 h, n=13
  tumour/whole plasma ratio (% ± s.e.): 90+ 3%
[5]; KHT tumour, 1 h after single i.p. dose of 78 mg kg-1
  tumour/whole plasma ratio (s.e., n=5): 88+5%
[5]; KHT tumour, 1 h after single i.p. dose of 260 mg kg-1
  tumour/whole plasma ratio (s.e., n=5): 88+2%
[5]; KHT tumour, first experiment
  steady-state concentration in tumour: 26 µg/g
[5]; KHT tumour, second experiment
  steady-state concentration in tumour: 32 µg/g
[5]; Table II experiment a
  range of mean plasma concentrations: 49 to 99 µg/mL
[5]; Table II experiment b
  range of mean plasma concentrations: 77 to 121 µg/mL
[5]; Table II experiment c
  range of mean plasma concentrations: 100 to 130 µg/mL
[5]; Table II experiment d
  range of mean plasma concentrations: 74 to 133 µg/mL
[5]; Table II experiment e (multiple dose)
  range of mean plasma concentrations: 25 to 47 µg/mL
[5]; Table II experiment f (multiple dose)
  range of mean plasma concentrations: 12 to 29 µg/mL
[5]; male, BALB/c, mouse, EMT6 flank tumour / whole plasma, EMT6 flank tumours, read-out: overall tissue/whole plasma ratio
  Kp: 0.69
[5]; male, mouse, tumour (EMT6, intradermal, intraperitoneal), EMT6 i.d. flank, BALB/c, Exp 1 (a): 650 mg kg-1 i.p. single dose (arachis oil), 45-135 min, n=16, read-out: tumour/whole plasma ratio (% ± s.e.)
  Kp: 0.59
[5]; mice, 13 mg kg-1 i.p.
  peak tumour concentration that would be produced: ~9 µg/g
[5]; mice, 78 mg kg-1 i.p., discussion summary
  tumour concentration: 26 µg/g
[5]; tumour (KHT and EMT6), transplantable mouse tumours (KHT and EMT6), read-out: tissue/whole plasma ratios, range
  Kp: 0.59 to 0.99
[5]; tumour / whole plasma, transplantable mouse tumours, read-out: steady-state tumour/whole plasma ratio (about)
  Kp: ~0.9
